Results published in patent publication US6750178B1, “Agrochemical composition” (Syngenta Limited, priority 1999, dated 2004).

Tests used:
Type in all cases: in vivo
SIDSP = assay: Glass-house ED90 of paraquat dichloride plus adjuvant, SIDSP; conditions: paraquat dichloride 15, 45, 135 and 270 g/ha paraquat ion; adjuvant 0.1% w/v; 18 days after treatment
[1] = test system: Soghinm halepenise(SORHA); assay: Glass-house ED90 of glyphosate salts, SORHA; conditions: calculated dose for 90% control; rates 500-4000 glyphosate acid equivalent/ha; AL2042 0.25% w/v with all treatments; 22 days after treatment
From the text: This Example illustrates the use of salts of glyphosate acid and the adjuvants of Formula (I).
Glyphosate trimesium and the glyphosate salts of the indicated adjuvants of formula (I) were applied to Soghinm halepenise(SORHA) at 500, 1000, 2000 and 4000 glyphosate acid equivalent/ha. All treatments were made up in deionised water and applied using a tracksprayer with a 11002 nozzle at a spray application volume of 200 l/ha . All treatments were replicated 3 times. After spraying the plants were laid out in a glass-house and maintained at a temperature of 24° C. by day and 19° C. by night. A visual assessment of % control was carried out 22 days after treatment and calculated doses for 90% control (ED90) were derived. AL2042 alkylpolygylcoside was used at 0.25% w/v as additional surfactant with all treatments. It will be appreciated that a low ED90 value indicates high activity.

[2] = test system: Abutilon theophrasti (ABUTH); assay: Glass-house visual % control with potassium glyphosate plus adjuvant; conditions: potassium glyphosate 500 g glyphosate acid equivalent/ha, adjuvant 0.2% w/v, 200 l/ha, 16 days after treatment, 0=unaffected, 100=complete kill
Method: Potassium glyphosate was applied at 500 g glyphosate acid equivalent/ha to Abutilon theophrasti (ABUTH) plants grown in the glass-house. All treatments were made up in deionised water and applied using a tracksprayer with a 11002 nozzle at a spray application volume of 200 l/ha . All treatments were replicated 4 times. After spraying the plants were laid out in a glass-house and maintained at a temperature of 24° C. by day and 19° C. by night. The JEFFAMINE adjuvants were used in a proportion 0.2% w/v. A visual assessment of % control, where 0=unaffected and 100=complete kill, was carried out 16 days after treatment.

[3] = test system: Ipomoea hederacea (IPOHE); assay: Glass-house visual % control with potassium glyphosate plus adjuvant, IPOHE; conditions: potassium glyphosate 300 g glyphosate acid equivalent/ha, AL2042 0.2% w/v, CRODAFOS T5A salts 0.2% w/v phosphate ester acid equivalent, 16 days after treatment
From the text: This Example illustrates the use of a salt of ethoxy (5 moles of EO) isotridecyl phosphate, ester in the acid form (CRODAFOS T5A) with JEFFAMINE ED600. CRODAFOS T5A is a mixture of mono and di esters. CRODAFOS is a tradename of Croda.
Potassium glyphosate, in combination with the adjuvants specified below, was applied to Ipomoea hederacea (IPOHE) at 300 g glyphosate acid equivalent/ha. All treatments were made up in deionised water and applied using a tracksprayer with a 11002 nozzle at a spray application volume of 200 l/ha. All treatments were replicated 4 times. After spraying the plants were laid out in a glass-house and maintained at a temperature of 24° C. by day and 19° C. by night. A visual assessment of % control was carried out 16 days after treatment.
The AL2042 was applied at 0.2% w/v and the CRODAFOS T5A salts were applied at 0.2% w/v phosphate ester acid equivalent. The Crodafos T5A potassium salt was prepared by neutralising the phosphate ester in its acid form with potassium hydroxide to pH6. The CRODAFOS T5A JEFFAMINE ED600 salt was prepared by neutralising the phosphate ester in its acid form with JEFFAMINE ED600 to pH6.

For `C[n+]1ccc(-c2cc[n+](C)cc2)cc1` [Control — No adjuvant, Paraquat dichloride], the “ED90 SIDSP” value (SIDSP) was “(>270) g paraquat ion per litre”.
For `C[S+](C)C.O=C([O-])CNCP(=O)(O)O` [Glyphosate trimesium], the “SORHA — ED90” value [1] was 1410 gae/ha.
For `O=C(O)CNCP(=O)([O-])O.[K+]` [No adjuvant, Potassium glyphosate], the “% control” value [2] was 37% and the “IPOHE — % control” value [3] was 64%.
